In ChEMBL document CHEMBL3352414, “Structure based inhibitor design targeting glycogen phosphorylase B. Virtual screening, synthesis, biochemical and biological assessment of novel N-acyl-β-d-glucopyranosylamines” (Bioorg Med Chem, 2014):

Key:
[1] = target: T1, Glycogen phosphorylase, muscle form (Oryctolagus cuniculus, UniProt P00489); assay: Inhibition of rabbit skeletal muscle glycogen phosphorylase b assessed as inorganic phosphate release
T1 sequence (P00489 whole entry): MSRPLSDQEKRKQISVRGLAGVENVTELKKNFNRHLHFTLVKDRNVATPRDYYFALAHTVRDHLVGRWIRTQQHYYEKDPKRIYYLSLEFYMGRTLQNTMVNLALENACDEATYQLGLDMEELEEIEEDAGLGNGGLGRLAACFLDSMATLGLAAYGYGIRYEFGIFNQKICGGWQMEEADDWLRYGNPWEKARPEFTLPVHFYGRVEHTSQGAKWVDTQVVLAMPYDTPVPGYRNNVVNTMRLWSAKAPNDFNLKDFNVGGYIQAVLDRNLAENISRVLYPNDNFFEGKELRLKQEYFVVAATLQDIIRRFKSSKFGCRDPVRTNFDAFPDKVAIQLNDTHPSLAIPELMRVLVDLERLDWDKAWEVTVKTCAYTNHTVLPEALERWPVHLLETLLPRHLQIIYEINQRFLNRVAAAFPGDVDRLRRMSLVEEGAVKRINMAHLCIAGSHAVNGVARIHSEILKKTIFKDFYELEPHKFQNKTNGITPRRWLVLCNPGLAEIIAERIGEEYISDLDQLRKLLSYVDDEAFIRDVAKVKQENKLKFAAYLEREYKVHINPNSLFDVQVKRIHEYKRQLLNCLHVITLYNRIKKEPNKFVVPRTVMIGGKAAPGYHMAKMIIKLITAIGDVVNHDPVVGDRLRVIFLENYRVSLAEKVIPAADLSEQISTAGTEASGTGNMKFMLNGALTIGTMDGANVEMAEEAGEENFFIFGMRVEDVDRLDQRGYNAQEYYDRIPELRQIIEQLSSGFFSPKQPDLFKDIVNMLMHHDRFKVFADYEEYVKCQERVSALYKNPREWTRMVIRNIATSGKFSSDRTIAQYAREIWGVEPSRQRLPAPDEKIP

[2] = Octanol water partition coefficient, logP of the compound; assay type: physicochemical
[3] = Permeability in human Caco2 cells; assay type: ADME, cell-based; details: Caco-2, read-out: permeability

Row | Structure (SMILES) | Ki ([1]; read-out: Ki) | logP [2] | Papp [3] | Ki [1]
1 | O=C(O)C(=O)N[C@@H]1O[C@H](CO)[C@@H](O)[C@H](O)[C@H]1O | 710 µM |  |  | 
2 | C[C@@H](Cc1ccc(C(C)(C)C)cc1)C(=O)N[C@@H]1O[C@H](CO)[C@@H](O)[C@H](O)[C@H]1O |  | 0.379 | 10 ×10⁻⁶ cm/s | 
3 | CCc1ccc([C@H](C)CC(=O)N[C@@H]2O[C@H](CO)[C@@H](O)[C@H](O)[C@H]2O)cc1 | 377 µM | -0.162 | 8.9 ×10⁻⁶ cm/s | 
4 | O=C(NC(=O)c1cc2ccccc2[nH]1)N[C@@H]1O[C@H](CO)[C@@H](O)[C@H](O)[C@H]1O | 4 µM |  |  | 
5 | CC(C)(C(=O)N[C@@H]1O[C@H](CO)[C@@H](O)[C@H](O)[C@H]1O)c1cccc2ccccc12 |  | 0.085 | 14.7 ×10⁻⁶ cm/s | 
6 | O=C(NC1CC1)C(=O)N[C@@H]1O[C@H](CO)[C@@H](O)[C@H](O)[C@H]1O | 1410 µM |  |  | 
7 | O=C(N[C@@H]1O[C@H](CO)[C@@H](O)[C@H](O)[C@H]1O)C1=Cc2cc(Cl)ccc2OC1 |  | -0.169 | 9.4 ×10⁻⁶ cm/s | 
8 | O=C(Cc1ccccc1)NC(=O)N[C@@H]1O[C@H](CO)[C@@H](O)[C@H](O)[C@H]1O | 600 µM |  |  | 
9 | O=C(Nc1cccc2ccccc12)C(=O)N[C@@H]1O[C@H](CO)[C@@H](O)[C@H](O)[C@H]1O | 144 µM |  |  | 
10 | CC(C)(Oc1ccc2ccccc2c1)C(=O)N[C@@H]1O[C@H](CO)[C@@H](O)[C@H](O)[C@H]1O |  | 0.037 | 10.6 ×10⁻⁶ cm/s | 
11 | O=C(Nc1ccccc1)N[C@@H]1O[C@H](CO)[C@@H](O)[C@H](O)[C@H]1O | 18 µM |  |  | 
12 | COC(=O)CCCC(=O)N[C@@H]1O[C@H](CO)[C@@H](O)[C@H](O)[C@H]1O | 83 µM |  |  | 
13 | COC(=O)c1ccc(/C=C/C(=O)N[C@@H]2O[C@H](CO)[C@@H](O)[C@H](O)[C@H]2O)cc1 |  | -0.805 | 2.63 ×10⁻⁶ cm/s | 
14 | O=C(N[C@@H]1O[C@H](CO)[C@@H](O)[C@H](O)[C@H]1O)c1cccc2ccccc12 | 10 µM |  |  | 
15 | O=C(Nc1ccccn1)C(=O)N[C@@H]1O[C@H](CO)[C@@H](O)[C@H](O)[C@H]1O | 230 µM |  |  | 
16 | O=C(N[C@@H]1O[C@H](CO)[C@@H](O)[C@H](O)[C@H]1O)C1CCCCC1 | 289 µM |  |  | 
17 | CC(C)(C)c1ccc(/C=C/C(=O)N[C@@H]2O[C@H](CO)[C@@H](O)[C@H](O)[C@H]2O)cc1 |  | 0.496 | 8.77 ×10⁻⁶ cm/s | 
18 | CC(C)(C)c1ccc(C(=O)NC(=O)N[C@@H]2O[C@H](CO)[C@@H](O)[C@H](O)[C@H]2O)cc1 | 0.7 µM |  |  | 
19 | O=C(Nc1ccc2ccccc2c1)N[C@@H]1O[C@H](CO)[C@@H](O)[C@H](O)[C@H]1O | 5.2 µM |  |  | 
20 | CCc1ccc(/C=C/C(=O)N[C@@H]2O[C@H](CO)[C@@H](O)[C@H](O)[C@H]2O)cc1 |  | 0.04 | 9.47 ×10⁻⁶ cm/s | 

Row | Structure (SMILES) | Ki ([1]; read-out: Ki) | logP [2] | Papp [3] | Ki [1]
21 | CC(=O)N[C@@H]1O[C@H](CO)[C@@H](O)[C@H](O)[C@H]1O | 32 µM |  |  | 
22 | O=C1Cc2ccc(Cl)cc2C=C1C(=O)N[C@@H]1O[C@H](CO)[C@@H](O)[C@H](O)[C@H]1O |  | -0.221 | 3.85 ×10⁻⁶ cm/s | 
23 | COC(=O)c1ccc(C(=O)N[C@@H]2O[C@H](CO)[C@@H](O)[C@H](O)[C@H]2O)cc1 | 329 µM |  |  | 
24 | CC[C@H](CC(=O)N[C@@H]1O[C@H](CO)[C@@H](O)[C@H](O)[C@H]1O)c1ccc(C)c(C)c1 |  | 0.01 | 7.67 ×10⁻⁶ cm/s | 
25 | O=C(CCc1ccccc1)N[C@@H]1O[C@H](CO)[C@@H](O)[C@H](O)[C@H]1O | 85 µM |  |  | 
26 | O=C(/C=C/c1ccc2ccccc2c1)N[C@@H]1O[C@H](CO)[C@@H](O)[C@H](O)[C@H]1O | 3.5 µM |  |  | 
27 | O=C(Nc1ccc2ccccc2c1)C(=O)N[C@@H]1O[C@H](CO)[C@@H](O)[C@H](O)[C@H]1O | 56 µM |  |  | 
28 | COc1cc(/C=C/C(=O)N[C@@H]2O[C@H](CO)[C@@H](O)[C@H](O)[C@H]2O)cc(OC)c1 |  | -0.36 | 8 ×10⁻⁶ cm/s | 
29 | O=C(C#Cc1ccccc1)N[C@@H]1O[C@H](CO)[C@@H](O)[C@H](O)[C@H]1O | 61 µM |  |  | 
30 | O=C(N[C@@H]1O[C@H](CO)[C@@H](O)[C@H](O)[C@H]1O)[C@H](O)[C@@H](O)[C@@H](O)[C@H](O)CO | 225 µM |  |  | 
31 | O=C(NC(=O)c1ccccn1)N[C@@H]1O[C@H](CO)[C@@H](O)[C@H](O)[C@H]1O | 68 µM |  |  | 
32 | O=C(N[C@@H]1O[C@H](CO)[C@@H](O)[C@H](O)[C@H]1O)[C@H](O)[C@@H](O)[C@H](O)[C@H](O)CO | 341 µM |  |  | 
33 | C[C@@H]1C[C@@]1(C(=O)N[C@@H]1O[C@H](CO)[C@@H](O)[C@H](O)[C@H]1O)c1cccc2ccccc12 |  | 0.255 | 14.5 ×10⁻⁶ cm/s | 
34 | CC(C)c1ccc(C[C@H](C)C(=O)N[C@@H]2O[C@H](CO)[C@@H](O)[C@H](O)[C@H]2O)cc1 | 75.3 µM | 0.01 | 7.67 ×10⁻⁶ cm/s | 
35 | COC(=O)C(=O)N[C@@H]1O[C@H](CO)[C@@H](O)[C@H](O)[C@H]1O | 210 µM |  |  | 
36 | O=C(NC(=O)c1ccc(C(F)(F)F)cc1)N[C@@H]1O[C@H](CO)[C@@H](O)[C@H](O)[C@H]1O | 1.8 µM |  |  | 
37 | O=C(CCNC(=O)c1ccc(F)c(F)c1)N[C@@H]1O[C@H](CO)[C@@H](O)[C@H](O)[C@H]1O |  | -0.807 | 3.14 ×10⁻⁶ cm/s | 
38 | Cc1ccc2c(c1)C=C(C(=O)N[C@@H]1O[C@H](CO)[C@@H](O)[C@H](O)[C@H]1O)C(=O)C2 |  | -0.451 | 3.62 ×10⁻⁶ cm/s | 
39 | N[C@H](Cc1c[nH]c2ccccc12)C(=O)N[C@@H]1O[C@H](CO)[C@@H](O)[C@H](O)[C@H]1O |  | -2.09 | 0.47 ×10⁻⁶ cm/s | 
40 | O=C(C[C@H](c1ccc(Cl)cc1)C1CC1)N[C@@H]1O[C@H](CO)[C@@H](O)[C@H](O)[C@H]1O |  | 0.083 | 6.97 ×10⁻⁶ cm/s | 

Row | Structure (SMILES) | Ki ([1]; read-out: Ki) | logP [2] | Papp [3] | Ki [1]
41 | COc1ccc(/C=C/C(=O)N[C@@H]2O[C@H](CO)[C@@H](O)[C@H](O)[C@H]2O)c(O)c1 |  | -0.958 | 3.89 ×10⁻⁶ cm/s | 
42 | Cc1ccc(-c2cnc(CCC(=O)N[C@@H]3O[C@H](CO)[C@@H](O)[C@H](O)[C@H]3O)o2)cc1 |  | -0.574 | 5.4 ×10⁻⁶ cm/s | 
43 | Cc1ccccc1[C@H](Cc1ccco1)C(=O)N[C@@H]1O[C@H](CO)[C@@H](O)[C@H](O)[C@H]1O |  | 0.004 | 12.2 ×10⁻⁶ cm/s | 
44 | N[C@@H](Cc1c[nH]c2ccccc12)C(=O)N[C@@H]1O[C@H](CO)[C@@H](O)[C@H](O)[C@H]1O |  | -2.1 | 0.4 ×10⁻⁶ cm/s | 
45 | COC(=O)c1cccc(C(=O)N[C@@H]2O[C@H](CO)[C@@H](O)[C@H](O)[C@H]2O)c1 | 580 µM |  |  | 
46 | C[C@H](CC(=O)N[C@@H]1O[C@H](CO)[C@@H](O)[C@H](O)[C@H]1O)c1ccc(C(C)(C)C)cc1 |  | 0.33 | 9.77 ×10⁻⁶ cm/s | 
47 | O=C(N[C@@H]1O[C@H](CO)[C@@H](O)[C@H](O)[C@H]1O)c1ccccc1 | 81 µM |  |  | 
48 | O=C(Nc1ccccc1)C(=O)N[C@@H]1O[C@H](CO)[C@@H](O)[C@H](O)[C@H]1O | 100 µM |  |  | 
49 | O=C(Cn1cc(-c2ccccc2)nn1)N[C@@H]1O[C@H](CO)[C@@H](O)[C@H](O)[C@H]1O | 180 µM |  |  | 
50 | CC(C)c1ccc([C@@H](C)CC(=O)N[C@@H]2O[C@H](CO)[C@@H](O)[C@H](O)[C@H]2O)cc1 |  | 0.075 | 7.87 ×10⁻⁶ cm/s | 
51 | O=C(CCc1ncc(-c2ccccc2)o1)N[C@@H]1O[C@H](CO)[C@@H](O)[C@H](O)[C@H]1O |  | -0.915 | 3.65 ×10⁻⁶ cm/s | 
52 | CC(C)N(C(=O)C(=O)N[C@@H]1O[C@H](CO)[C@@H](O)[C@H](O)[C@H]1O)C(C)C |  |  |  | Not Active
53 | CCOC(=O)C(=O)N[C@@H]1O[C@H](CO)[C@@H](O)[C@H](O)[C@H]1O | 920 µM |  |  | 
54 | O=C(N[C@@H]1O[C@H](CO)[C@@H](O)[C@H](O)[C@H]1O)C(c1ccccc1)c1ccccc1 |  |  |  | Not Active
55 | O=C(/C=C/c1ccccc1)N[C@@H]1O[C@H](CO)[C@@H](O)[C@H](O)[C@H]1O | 18 µM |  |  | 
56 | O=C(C[C@H]1CC(=O)c2c(F)cc(F)cc21)N[C@@H]1O[C@H](CO)[C@@H](O)[C@H](O)[C@H]1O |  | -1.21 | 3.17 ×10⁻⁶ cm/s | 
57 | O=C(N[C@@H]1O[C@H](CO)[C@@H](O)[C@H](O)[C@H]1O)C(F)(F)F | 81 µM |  |  | 
58 | COC(=O)CCC(=O)N[C@@H]1O[C@H](CO)[C@@H](O)[C@H](O)[C@H]1O | 170 µM |  |  | 
